# Source: ChEMBL document CHEMBL1201862, “PubChem BioAssay data set” (2004)
# Activity calls are given as the source filed them.
# What was measured:
# Bcl-2-like protein 10 = target: T1, Bcl-2-like protein 10 (Homo sapiens, UniProt Q9HD36); assay: Concentration-response of Bcl-B inhibitors by biochemical FP with TR3 (AID 1243); type: functional
# T1 sequence (Q9HD36 whole entry): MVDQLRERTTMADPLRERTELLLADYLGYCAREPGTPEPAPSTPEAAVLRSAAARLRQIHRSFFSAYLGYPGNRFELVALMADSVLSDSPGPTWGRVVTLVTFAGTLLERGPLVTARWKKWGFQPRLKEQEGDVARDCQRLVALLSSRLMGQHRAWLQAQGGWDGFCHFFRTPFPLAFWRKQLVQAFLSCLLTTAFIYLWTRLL
# [1] = target: Neuropeptide Y receptor type 1 (Homo sapiens, UniProt P25929); assay: IC50 of human NPY-Y1 blockers – cell-based, dose response (AID 1277); type: functional
# Chain of Neuropeptide Y receptor type 1 (P25929 whole entry): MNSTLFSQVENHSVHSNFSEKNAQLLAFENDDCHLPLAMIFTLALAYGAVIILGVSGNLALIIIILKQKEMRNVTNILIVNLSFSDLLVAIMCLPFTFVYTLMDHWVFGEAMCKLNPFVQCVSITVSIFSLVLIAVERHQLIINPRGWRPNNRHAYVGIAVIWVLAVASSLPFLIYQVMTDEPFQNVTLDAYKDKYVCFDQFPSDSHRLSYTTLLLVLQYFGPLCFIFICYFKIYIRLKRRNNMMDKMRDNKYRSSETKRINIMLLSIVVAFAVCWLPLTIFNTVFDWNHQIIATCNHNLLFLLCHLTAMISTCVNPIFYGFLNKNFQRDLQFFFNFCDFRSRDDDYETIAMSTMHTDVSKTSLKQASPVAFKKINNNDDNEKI
# [2] = target: Neuropeptide Y receptor type 2 (Homo sapiens, UniProt P49146); assay: IC50 for human NPY-Y2 blockade – cell-based, counter-screen for NPY-Y1 antagonist project, dose response (AID 1278); type: functional
# Chain of Neuropeptide Y receptor type 2 (P49146 whole entry): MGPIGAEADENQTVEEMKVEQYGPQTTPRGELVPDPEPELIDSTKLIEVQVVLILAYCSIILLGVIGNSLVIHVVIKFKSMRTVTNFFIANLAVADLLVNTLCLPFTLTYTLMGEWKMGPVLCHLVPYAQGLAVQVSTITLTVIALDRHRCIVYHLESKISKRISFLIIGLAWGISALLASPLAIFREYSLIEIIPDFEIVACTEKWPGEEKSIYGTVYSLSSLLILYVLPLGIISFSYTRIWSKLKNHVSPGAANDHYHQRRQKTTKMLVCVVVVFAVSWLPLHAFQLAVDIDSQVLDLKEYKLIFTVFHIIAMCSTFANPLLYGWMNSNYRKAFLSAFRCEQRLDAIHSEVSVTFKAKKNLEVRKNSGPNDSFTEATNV
# HeLa = assay: Cytotoxicity counterscreen assay for transcriptional activators of heat shock protein 70 (Hsp70). [Related pubchem assays: 1203, 1252 ]; type: functional; details: Homo sapiens;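 also: cells exposed to compound for 16 hours before readout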
# Streptokinase A = target: T2, Streptokinase A (Streptococcus pyogenes serotype M1, UniProt P10520); assay: viability-normalized secreted streptokinase activity reduction – plasminogen activation absorbance, OD405, dose response (AID 1914); type: functional, Streptococcus pyogenes M1 GAS;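 also: secreted streptokinase activity via plasminogen activation per viability signal from cell pellet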
# T2 sequence (P10520 whole entry): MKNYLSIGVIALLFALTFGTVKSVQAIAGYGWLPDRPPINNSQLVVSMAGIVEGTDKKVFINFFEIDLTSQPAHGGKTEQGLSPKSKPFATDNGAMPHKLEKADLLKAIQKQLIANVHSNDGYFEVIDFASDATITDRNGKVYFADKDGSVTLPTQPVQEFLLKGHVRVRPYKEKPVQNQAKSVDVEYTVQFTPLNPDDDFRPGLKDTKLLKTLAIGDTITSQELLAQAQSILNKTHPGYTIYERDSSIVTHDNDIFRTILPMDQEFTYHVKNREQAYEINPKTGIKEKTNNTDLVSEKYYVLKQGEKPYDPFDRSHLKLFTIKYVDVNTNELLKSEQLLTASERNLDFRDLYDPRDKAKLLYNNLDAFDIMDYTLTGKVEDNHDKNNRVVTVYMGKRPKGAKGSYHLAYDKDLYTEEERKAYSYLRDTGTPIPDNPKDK
# [3] = alpha-synuclein stem-loop luciferase translation blockers – H4 neuroglioma cells, luminescence, confirmation (AID 1988); type: functional, cell-based
# BJ [4] = assay: growth inhibition of engineered Ras-driven BJ cells – cell-based, alamar blue fluorescence, cherrypicked samples, dose response (AID 2631); type: functional; details: Homo sapiens;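 also: confirmatory dose-response assay in RAS-dependent BJ fibroblasts engineered with TERT, LT and ST, with cytotoxicity read by fluorescence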
# [5] = DRD fibroblast viability loss – cell-based, non-viral oncogenic, luminescence, dose response (AID 1934); type: functional; details: Homo sapiens
# BJ [6] = assay: BJ-TERT-LT-ST fibroblast viability loss – cell-based, RAS-independent, luminescence, dose response (AID 1935); type: functional; details: Homo sapiens;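 also: BJ fibroblasts immortalized with TERT plus LT and ST oncogenes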
# [7] = tested on: Streptococcus sp. 'group A'; assay: Streptococcus pyogenes SK(-)GAS viability under kanamycin – luminescence, BacTiterGlo, confirmation, counter-screen for streptokinase expression inhibitor project, dose response (AID 1900); type: functional, organism-based
# Estrogen receptor = target: T3, Estrogen receptor (Homo sapiens, UniProt P03372);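 also: potency for inhibiting coactivator peptide recruitment to the receptor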
# T3 sequence (P03372 whole entry): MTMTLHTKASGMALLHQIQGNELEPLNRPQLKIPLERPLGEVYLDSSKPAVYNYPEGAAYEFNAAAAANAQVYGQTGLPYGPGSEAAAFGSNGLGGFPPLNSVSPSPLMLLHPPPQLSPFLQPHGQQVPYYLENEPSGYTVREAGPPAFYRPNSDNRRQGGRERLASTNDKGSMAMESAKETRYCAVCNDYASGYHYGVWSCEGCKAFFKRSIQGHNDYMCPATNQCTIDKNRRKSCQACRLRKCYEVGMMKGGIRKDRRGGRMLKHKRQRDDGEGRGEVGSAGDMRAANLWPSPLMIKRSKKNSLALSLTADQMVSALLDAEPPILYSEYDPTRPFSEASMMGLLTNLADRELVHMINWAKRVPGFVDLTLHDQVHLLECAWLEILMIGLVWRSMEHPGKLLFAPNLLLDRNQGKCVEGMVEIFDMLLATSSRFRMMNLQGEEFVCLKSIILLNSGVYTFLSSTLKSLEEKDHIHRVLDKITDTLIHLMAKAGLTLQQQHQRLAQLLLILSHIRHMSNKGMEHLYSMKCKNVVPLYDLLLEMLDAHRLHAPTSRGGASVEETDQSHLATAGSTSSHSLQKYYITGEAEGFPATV
# [8] = luciferase reporter signal suppression in cells – H4 neuroglioma cells, luminescence, dose response (AID 1990); type: functional, cell-based
# [9] = Luminescence Cell-Based Dose Response HTS to Identify Inhibitors of 5'UTR Stem-Loop Driven Prion Protein mRNA Translation in H4 Neuroglioblastoma Cells. [Related pubchem assays: 1827 (Project Summary), 1813 (Primary HTS)]; type: functional
# [10] = target: Mothers against decapentaplegic homolog 3 (Homo sapiens, UniProt P84022); assay: inhibitors of SMAD-driven TGF-beta signaling – dose response (AID 715); type: functional
# Chain of Mothers against decapentaplegic homolog 3 (P84022 whole entry): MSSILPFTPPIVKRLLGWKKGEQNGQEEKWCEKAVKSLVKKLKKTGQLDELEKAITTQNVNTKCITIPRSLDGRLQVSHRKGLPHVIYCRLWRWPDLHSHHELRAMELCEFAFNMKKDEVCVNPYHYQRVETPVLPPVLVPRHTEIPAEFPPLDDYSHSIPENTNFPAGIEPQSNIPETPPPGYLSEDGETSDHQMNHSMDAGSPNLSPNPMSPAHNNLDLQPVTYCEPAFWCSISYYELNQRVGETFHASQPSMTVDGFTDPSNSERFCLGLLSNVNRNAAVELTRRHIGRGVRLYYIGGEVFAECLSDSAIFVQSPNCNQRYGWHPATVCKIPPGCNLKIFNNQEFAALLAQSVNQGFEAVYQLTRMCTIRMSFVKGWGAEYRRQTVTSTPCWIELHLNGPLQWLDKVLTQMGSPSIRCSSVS
# Streptococcus = assay: GAS UMAA2166 growth inhibition – luminescence, BacTiterGlo, counter-screen for streptokinase expression inhibitor project, dose response (AID 1915); type: functional, organism-based;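 also: potency for reduction of bacterial viability or growth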
# BJ [11] = assay: cells; type: functional, cell-based; details: Homo sapiens
# [12] = CCR5-tropic HIV-1 fusion blockers – cell-based, CCR5-tropic Env, dose response (AID 2279); type: functional
# [13] = target: T4, Corticotropin-releasing factor receptor 2/Corticotropin-releasing factor-binding protein (Homo sapiens, UniProt P24387+Q13324); assay: Dose Response confirmation of uHTS hits for small molecule antagonists of the CRF-binding protein and CRF-R2 receptor complex.; type: functional; details: read-out: IC50_Mean
# T4 sequence (Q13324 whole entry): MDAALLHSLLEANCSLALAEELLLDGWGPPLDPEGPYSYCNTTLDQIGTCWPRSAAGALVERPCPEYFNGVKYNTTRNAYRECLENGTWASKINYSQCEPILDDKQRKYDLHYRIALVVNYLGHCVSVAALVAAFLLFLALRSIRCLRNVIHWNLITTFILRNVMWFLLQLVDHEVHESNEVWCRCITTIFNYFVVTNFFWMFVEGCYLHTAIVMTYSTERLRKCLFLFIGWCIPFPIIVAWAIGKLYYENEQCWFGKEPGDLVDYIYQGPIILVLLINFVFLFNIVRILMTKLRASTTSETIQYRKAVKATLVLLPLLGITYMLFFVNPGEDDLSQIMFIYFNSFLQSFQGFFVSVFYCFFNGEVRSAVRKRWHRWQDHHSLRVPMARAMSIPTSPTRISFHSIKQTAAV
# T4 sequence (P24387 whole entry): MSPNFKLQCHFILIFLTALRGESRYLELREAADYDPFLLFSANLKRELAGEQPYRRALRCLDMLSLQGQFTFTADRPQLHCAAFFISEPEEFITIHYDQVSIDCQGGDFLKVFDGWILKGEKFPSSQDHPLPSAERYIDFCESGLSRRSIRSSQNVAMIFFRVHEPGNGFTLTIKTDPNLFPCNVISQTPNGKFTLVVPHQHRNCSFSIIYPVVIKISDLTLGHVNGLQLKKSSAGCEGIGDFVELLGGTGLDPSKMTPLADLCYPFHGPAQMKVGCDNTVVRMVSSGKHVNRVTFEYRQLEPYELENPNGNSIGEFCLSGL
# Cysteine protease ATG4B = target: T5, Cysteine protease ATG4B (Homo sapiens, UniProt Q9Y4P1); type: functional;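 also: Fluorescence-based dose-response confirmation assay measuring inhibition of ATG4B activity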
# T5 sequence (Q9Y4P1 whole entry): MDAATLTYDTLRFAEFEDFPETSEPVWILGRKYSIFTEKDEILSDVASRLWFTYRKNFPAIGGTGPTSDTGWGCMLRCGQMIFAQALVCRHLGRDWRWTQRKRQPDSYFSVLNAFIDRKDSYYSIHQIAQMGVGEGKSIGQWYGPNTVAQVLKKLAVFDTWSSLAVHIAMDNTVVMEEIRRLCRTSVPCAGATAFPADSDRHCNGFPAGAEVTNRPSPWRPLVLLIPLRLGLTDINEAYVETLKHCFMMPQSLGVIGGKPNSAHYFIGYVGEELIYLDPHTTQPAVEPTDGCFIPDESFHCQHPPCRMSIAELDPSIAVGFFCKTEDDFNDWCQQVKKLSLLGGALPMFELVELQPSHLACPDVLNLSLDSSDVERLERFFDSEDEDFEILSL
# [14] = target: T4, Corticotropin-releasing factor receptor 2/Corticotropin-releasing factor-binding protein; assay: activators of CRF receptor 2 with binding protein – uHTS hits, confirmation (AID 602473); type: functional; details: read-out: EC50_Mean
# Phospholipase A2 = Phospholipase A2 (Homo sapiens, UniProt P04054); type: functional;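 also: confirmatory dose-response counterscreen on phospholipase A2, testing hits that came from an ultra-high-throughput screen for ATG4B inhibitors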
# Chain of Phospholipase A2 (P04054 whole entry): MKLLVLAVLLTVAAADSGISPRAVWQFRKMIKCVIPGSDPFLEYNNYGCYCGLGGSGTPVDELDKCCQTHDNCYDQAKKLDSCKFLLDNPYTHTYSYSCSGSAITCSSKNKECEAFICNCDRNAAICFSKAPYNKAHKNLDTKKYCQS
# Aminopeptidase N = target: T6, Aminopeptidase N (Plasmodium falciparum FcB1/Columbia, UniProt O96935); assay: malaria alanyl aminopeptidase activity blockers – biochemical, fluorogenic H-Leu-NHMec substrate, 1536-well (AID 1445); parameters: species or system Plasmodium falciparum 3D7, 3D7
# T6 sequence (O96935 whole entry): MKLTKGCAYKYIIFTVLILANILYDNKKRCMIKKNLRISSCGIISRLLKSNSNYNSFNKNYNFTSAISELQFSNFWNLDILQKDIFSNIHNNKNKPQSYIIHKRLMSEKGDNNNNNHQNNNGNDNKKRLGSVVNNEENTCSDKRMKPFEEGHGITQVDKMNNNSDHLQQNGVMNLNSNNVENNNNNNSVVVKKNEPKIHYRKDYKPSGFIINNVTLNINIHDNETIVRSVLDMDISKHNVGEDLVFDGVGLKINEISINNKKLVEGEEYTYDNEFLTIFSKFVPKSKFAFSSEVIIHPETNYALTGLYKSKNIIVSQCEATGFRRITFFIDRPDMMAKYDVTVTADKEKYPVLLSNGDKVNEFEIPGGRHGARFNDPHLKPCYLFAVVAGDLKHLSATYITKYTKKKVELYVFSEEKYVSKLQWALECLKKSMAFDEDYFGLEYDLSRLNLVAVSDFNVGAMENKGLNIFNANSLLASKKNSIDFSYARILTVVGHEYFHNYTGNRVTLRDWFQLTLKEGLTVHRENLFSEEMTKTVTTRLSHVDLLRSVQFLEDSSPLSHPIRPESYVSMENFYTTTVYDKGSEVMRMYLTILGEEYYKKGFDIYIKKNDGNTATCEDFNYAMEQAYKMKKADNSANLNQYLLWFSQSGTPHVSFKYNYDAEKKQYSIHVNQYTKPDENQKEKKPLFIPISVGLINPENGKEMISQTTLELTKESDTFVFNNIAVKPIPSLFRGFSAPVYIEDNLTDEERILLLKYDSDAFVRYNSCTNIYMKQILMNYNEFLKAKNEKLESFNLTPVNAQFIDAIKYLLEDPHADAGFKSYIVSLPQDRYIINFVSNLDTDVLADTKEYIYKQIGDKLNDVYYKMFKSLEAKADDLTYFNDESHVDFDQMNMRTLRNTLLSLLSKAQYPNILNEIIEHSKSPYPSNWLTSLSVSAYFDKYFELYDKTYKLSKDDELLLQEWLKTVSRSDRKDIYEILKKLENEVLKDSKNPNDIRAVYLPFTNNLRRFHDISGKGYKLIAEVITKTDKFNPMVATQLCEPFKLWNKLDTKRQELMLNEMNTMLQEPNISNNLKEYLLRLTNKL
# [15] = blockers of CRF-binding protein–CRF-R2 complex – cell-based, uHTS hits, 384-well, dose response (AID 651639); type: functional, Homo sapiens; details: read-out: IC50_Mean
# [16] = target: T7, Heat shock factor protein 1 (Mus musculus, UniProt P38532); assay: enhancement of HSF1-driven luciferase signal – cell-based, NIH3T3, luminescence, dose retest, confirmation (AID 435004); type: functional;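 also: stress induced by proteasome inhibitor MG132 added 30 min after compound; luciferase reporter driven by HSF1 response element in NIH3T3 cells; actives raise luminescence as potentiators of the MG132 stress response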
# T7 sequence (P38532 whole entry): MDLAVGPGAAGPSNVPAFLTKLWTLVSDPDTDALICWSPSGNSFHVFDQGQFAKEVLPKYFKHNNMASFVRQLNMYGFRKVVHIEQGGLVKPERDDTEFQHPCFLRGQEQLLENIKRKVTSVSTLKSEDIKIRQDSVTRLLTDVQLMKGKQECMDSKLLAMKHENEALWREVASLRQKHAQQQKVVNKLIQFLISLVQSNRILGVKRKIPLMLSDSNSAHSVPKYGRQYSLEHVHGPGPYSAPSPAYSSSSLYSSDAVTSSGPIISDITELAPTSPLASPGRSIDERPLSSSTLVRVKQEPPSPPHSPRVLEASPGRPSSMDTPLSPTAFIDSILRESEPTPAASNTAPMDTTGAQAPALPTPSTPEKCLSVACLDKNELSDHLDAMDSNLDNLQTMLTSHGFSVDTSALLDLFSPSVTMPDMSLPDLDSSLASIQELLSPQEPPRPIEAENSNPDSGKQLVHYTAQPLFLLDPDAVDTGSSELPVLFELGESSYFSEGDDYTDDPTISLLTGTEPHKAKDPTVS
# [17] = M. tuberculosis growth inhibition, HTS (AID 449762); type: functional
# NS3 = NS3 (Hepatitis C virus, UniProt A3EZJ3); assay: PubChem AID 2173; parameters: species or system Hepacivirus hominis
# Chain of NS3 (A3EZJ3 whole entry): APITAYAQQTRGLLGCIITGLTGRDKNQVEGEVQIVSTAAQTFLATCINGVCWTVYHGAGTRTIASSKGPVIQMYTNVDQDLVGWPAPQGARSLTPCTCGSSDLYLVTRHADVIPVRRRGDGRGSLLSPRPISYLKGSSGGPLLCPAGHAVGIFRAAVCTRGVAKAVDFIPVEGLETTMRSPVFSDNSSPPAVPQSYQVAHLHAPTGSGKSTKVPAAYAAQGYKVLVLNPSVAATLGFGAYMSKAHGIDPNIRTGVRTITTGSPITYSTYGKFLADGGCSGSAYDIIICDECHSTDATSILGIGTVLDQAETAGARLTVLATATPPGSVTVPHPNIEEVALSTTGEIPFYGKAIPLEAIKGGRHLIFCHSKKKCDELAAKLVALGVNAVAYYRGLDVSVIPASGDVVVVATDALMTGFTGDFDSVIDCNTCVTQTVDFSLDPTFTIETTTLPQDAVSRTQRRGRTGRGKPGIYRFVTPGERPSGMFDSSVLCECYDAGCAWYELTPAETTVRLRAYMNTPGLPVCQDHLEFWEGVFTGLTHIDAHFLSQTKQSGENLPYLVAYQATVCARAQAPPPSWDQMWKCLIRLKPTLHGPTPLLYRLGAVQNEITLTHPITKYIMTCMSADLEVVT
compound,measurement,setting,value
O=C1C=CC(=O)C(/C(=C/NCc2ccccc2)[N+](=O)[O-])=C1,EC50,Bcl-2-like protein 10,5.7 µM (active)
Cc1nn(-c2ccccc2)c2sc(C(=O)O)cc12,IC50,[1],> 35 µM (not active)
same,IC50,[2],> 35 µM (not active)
Cn1c(CCN2CCOCC2)nc2cc(NC(=O)COc3ccc(Cl)cc3)ccc21,CC50,HeLa,> 99 µM (not active)
CCOC(=O)c1c2c(n(C)c1COC)C(=O)C(=O)c1ccc(Br)cc1-2,EC50,Streptokinase A,> 150 µM (not active)
same,EC50,[3],1.44 µM (active)
same,EC50,BJ [4],0.562 µM (active)
same,EC50,[5],2.36 µM (active)
same,EC50,BJ [6],1.08 µM (inconclusive)
same,EC50,[7],1.13 µM (active)
same,IC50,Estrogen receptor,8.87 µM (active)
same,EC50,[8],4.87 µM (active)
same,EC50,[9],5.16 µM (active)
same,IC50,[10],0.771 µM (active)
same,EC50,Streptococcus,24.3 µM (active)
same,EC50,BJ [11],3.08 µM (active)
Cc1ccc(N2C(=O)/C(=C\Nc3ccccc3-c3nnc(S)nc3O)c3ccccc3C2=O)c(C)c1,IC50,[12],39.9 µM (active)
same,IC50,[13],3.83 µM (active)
same,IC50,Cysteine protease ATG4B,14 µM (active)
same,EC50,[14],> 53 µM (inactive)
same,IC50,Phospholipase A2,10 µM (active)
same,IC50,Aminopeptidase N,27.4 µM (active)
same,IC50,[15],> 20 µM (inactive)
COc1ccccc1/C=C/C1=NC(=C\C=C/c2ccccc2)/C(=O)O1,EC50,[16],> 260 µM (inactive)
same,IC50,[17],> 100 µM (active)
same,IC50,NS3,24.1 µM (not active)
